The structures appear in SMILES notation.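 Cells were grown in 96-well plates and exposed to each compound for 48 hours at five concentrations; endpoints were interpolated linearly between bracketing concentrations, or set to the highest concentration if not reached. GI50 marks 50% less growth. Definition used: TGI = concentration required for complete inhibition of growth.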

Common to all, as to assay: NCI-60 cell line screen, 48 h
In assay [1] the test system is CAKI-1 renal.
Assay [2] concerns A549 NSCLC.
The test system of assay [3] is SK-MEL-5 melanoma.
For assay [4], the system named is HOP-92 NSCLC.
Assay [5] has as its system U251 CNS.
Assay [6] relates to SF-295 CNS.
In assay [7] the test system is SNB-19 CNS.
The subject of assay [8] is MOLT-4 leukemia.
The subject of assay [9] is MALME-3M melanoma.
For assay [10], the system named is NCI-H522 lung.

Consider `O=C1CC[C@@]2(O)[C@H]3Cc4ccc(-c5ccccc5)c5c4[C@@]2(CCN3CC2CC2)[C@H]1O5`, for which the TGI is 36.7 µM in assay [1]; 43.6 µM in assay [2]; 28.6 µM in [3]; 57.4 µM in assay [4]; 32.1 µM in assay [5]; 33.6 µM in [6]. Besides, the TGI in assay [7] was 59.6 µM; in assay [8] it was 43.5 µM; in [9], 29.9 µM; in assay [10], 30.1 µM.
Take `CC(=O)Oc1ccc2c(c1)CC[C@@H]1C2[C@@H](O[N+](=O)[O-])C[C@@]2(C)C1CC[C@@H]2O[N+](=O)[O-]` (some centres not stated): the TGI in [1] is 33.6 µM; in assay [2] it was 29.1 µM; in [3], 22.7 µM; in [4], 23.5 µM; in assay [5] it was 27.5 µM; in [6] it was 23.7 µM. Also, the TGI in [7] is 32.4 µM; in [8], 38.4 µM; in [9], 28.8 µM; in assay [10], 25.4 µM.
As for `Cc1cc(S(=O)(=O)Nc2nnc3cnc4ccccc4n23)c(S)cc1Cl`, the TGI is greater than 100 µM in assay [1]; greater than 100 µM in assay [2]; greater than 85.9 µM in assay [3]; greater than 85.9 µM in assay [4]; greater than 100 µM in assay [5]; greater than 100 µM in assay [6]. Also, the TGI in assay [7], in assay [8], in [9] and in assay [10] was greater than 100 µM in each case.
With `COc1c(-c2nc3nc(N4CCN(C)CC4)ccc3[nH]2)cc(OC)c2c1nc(COC(C)=O)n2C`, the TGI in assay [1], in [2], in [3], in assay [4], in [5] and in assay [6] was greater than 100 µM in each case. In addition, the TGI in assay [7], in assay [8], in assay [9] and in assay [10] was greater than 100 µM each time.
With `CC(=O)Nc1c(S(=O)(=O)c2ccccc2)c(C)c(C)n1Cc1ccccc1`, the TGI in assay [1], in assay [2], in [3], in [4], in assay [5] and in assay [6] was greater than 100 µM throughout. Further, the TGI in assay [7], in assay [8], in [9] and in assay [10] was greater than 100 µM each time.
As for `CC(C)(C)c1cc(OCc2nn3c(Cc4ccccc4)nnc3s2)c(Cl)cc1OCc1nn2c(Cc3ccccc3)nnc2s1`, the TGI in assay [1] was greater than 100 µM; in assay [2] it was greater than 100 µM; in [3], 26.6 µM; in [4], 52.9 µM; in assay [5], greater than 100 µM; in [6], greater than 100 µM. In addition, the TGI in assay [7] is greater than 100 µM; in [8] it was greater than 100 µM; in assay [9] it was 36.6 µM; in assay [10], greater than 100 µM.
Regarding `Clc1cccc(NN=Nc2ccc(-c3nc4ccccc4s3)cc2)c1`, the TGI in assay [1] was greater than 100 µM; in assay [2], greater than 100 µM; in assay [3], 74.9 µM; in [4], 76.8 µM; in assay [5], greater than 100 µM; in assay [6] it was greater than 100 µM. Also, the TGI in assay [7] was greater than 100 µM; in assay [8], 40.6 µM; in assay [9], 88.2 µM; in assay [10] it was 66.2 µM.
Consider `Cc1oc2c(c1C)S(=O)(=O)C(C#N)=C(N(C)C)N2`, for which the TGI in assay [1], in assay [2], in assay [3], in [4], in [5] and in assay [6] was greater than 100 µM each time. Further, the TGI in [7], in assay [8], in [9] and in [10] was greater than 100 µM each time.
In the case of `Cc1cc(S(=O)(=O)Nc2nc3ccccc3nc2-c2ccc(Cl)cc2)c(S)cc1Cl`, the TGI in [1] was determined as 36.8 µM; in assay [2] it was 33.6 µM; in assay [3] it was 27 µM; in assay [4], 46.9 µM; in assay [5], 34 µM; in assay [6] it was 35 µM. The TGI in assay [7] was determined as 37 µM; in assay [8], 42.2 µM; in [9], 41.4 µM; in assay [10], 28.3 µM.
`CSc1ccn(C2CC(F)C(CO)O2)c(=O)n1` (configuration not stated): the TGI in assay [1], in [2], in assay [3], in assay [4], in [5] and in assay [6] was greater than 100 µM each time. The TGI in assay [7], in assay [8], in assay [9] and in [10] was greater than 100 µM throughout.
With `Cc1ccc(-c2nc(N/N=C/c3ccc(O)cc3)c3ccccc3n2)cc1`, the TGI in assay [1] was 31.8 µM; in assay [2] it was greater than 100 µM; in assay [3], 15.4 µM; in assay [4] it was greater than 100 µM; in assay [5], 65.7 µM; in assay [6], 89.5 µM. The TGI is greater than 100 µM in assay [7], greater than 100 µM in assay [8], 29.4 µM in assay [9] and 30.1 µM in assay [10].
For `CCN(CC)CCN1C(=O)c2c(c3c4ccccc4[nH]c3c3ccc4ccccc4c23)C1=O`, the GI50 is 1.43 µM in assay [1]; 1.71 µM in assay [3]; 1.42 µM in [4]; 1.53 µM in [5]; 0.722 µM in assay [6]; 1.5 µM in assay [7]. Besides, the results for the GI50 in assay [8], in assay [9] and in assay [10] were 0.666 µM, 1.79 µM and 1.46 µM, respectively. Further, the TGI in assay [1] was determined as 2.87 µM; in assay [3] it was 3.12 µM; in [4], 2.95 µM; in [5], 3.06 µM; in assay [6] it was 2.03 µM; in assay [7], 2.88 µM. In addition, the TGI in assay [8] is 2.9 µM; in [9], 3.46 µM; in [10] it was 3.54 µM.
`COc1ccc(C2C(C#N)=C(S)N(C3OC(COC(C)=O)C(OC(C)=O)C(OC(C)=O)C3OC(C)=O)C(c3ccccc3)=C2C(C)=O)cc1` (configuration not stated): the TGI in assay [1], in [2], in assay [3], in assay [4], in assay [5] and in assay [6] was greater than 100 µM throughout. The TGI in [7], in assay [8], in assay [9] and in assay [10] was greater than 100 µM in each case.
For `Nc1nc(Cl)cc(NC2(CO)CCC2)n1`, the TGI in assay [1], in [2], in [3], in assay [4], in assay [5] and in assay [6] was greater than 100 µM each time. Besides, the TGI in assay [8], in [9] and in assay [10] was greater than 100 µM each time.
With `CCOC(=O)c1nc2ccc(C(F)(F)F)cc2nc1Nc1ccc(Cl)c(Cl)c1`, the TGI is greater than 100 µM in assay [1]; greater than 100 µM in [2]; greater than 100 µM in [3]; greater than 100 µM in assay [4]; greater than 100 µM in [6]; 95.7 µM in assay [7]. The TGI in assay [8], in [9] and in [10] was greater than 100 µM each time.
As for `C=C(NC(=O)C(=C)NC(=O)c1csc(C2=NC3c4csc(n4)C4NC(=O)c5csc(n5)C(C(C)(O)C(C)O)NC(=O)C5CSC(=N5)/C(=C/C)NC(=O)C(C(C)O)NC(=O)c5csc(n5)C3(CC2)NC(=O)C(C)NC(=O)C(=C)NC(=O)C(C)NC(=O)C(C(C)CC)NC2C=Cc3c(C(C)O)cc(nc3C2O)C(=O)OC4C)n1)C(N)=O` (configuration not stated), the TGI in assay [1] is greater than 100 µM; in assay [2], 58.4 µM; in assay [3] it was 2.58 µM; in assay [4], greater than 100 µM; in assay [5], 3.04 µM; in assay [6], 12.8 µM. Also, the TGI came to 8.28 µM in assay [7], 3.99 µM in assay [9] and 1.15 µM in assay [10]. In addition, the GI50 in assay [4] is 8.07 µM.
For the compound `S=c1[nH]n2c(CCCCCCCCc3nnc4sc(=S)[nH]n34)nnc2s1`, the TGI in assay [1], in assay [2], in assay [4], in [5], in assay [6] and in assay [7] was greater than 100 µM each time. In addition, the TGI in [8], in assay [9] and in assay [10] was greater than 100 µM in each case.
As to `CCOC(=O)/C(=C/c1ccc(C(=O)OC)cc1)N(CC)CC`, the TGI in assay [1], in assay [2], in assay [3], in assay [4], in assay [5] and in [7] was greater than 100 µM each time. Also, the TGI in assay [8], in assay [9] and in [10] was greater than 100 µM in each case.
`O=C(CSc1nc(-c2ccccc2)c(-c2ccccc2)[nH]1)N/N=C/c1ccc(O)cc1`: the TGI in assay [2] is 69.5 µM; in [4], 84.9 µM; in assay [5] it was 49 µM; in assay [6], 57.4 µM; in [7], greater than 100 µM; in assay [8], 70.1 µM. Moreover, the results for the TGI in assay [9] and in assay [10] were 52.5 µM and 48.6 µM, respectively.

Values taken from PubChem BioAssay (NCI).
